According to ChEMBL document CHEMBL1128162, “Synthesis and binding properties of myo-inositol 4,5,6-tris(phosphate) an analogue of myo-inositol 1,4,5-tris(phosphate). Correlation with the ionization state of the molecules” (Bioorg Med Chem Lett, 1995):
Blank lines part the entries; values can stand above or below the molecule they belong to.

Assays:
[1] = Binding affinity against Ins(4,5,6)P3 receptor prepared from purified rat brain cerebellum; format: tissue-based
[2] = target: Inositol 1,4,5-trisphosphate receptor (Homo sapiens, UniProt Q14571+Q14573+Q14643); test: Binding affinity against Ins(4,5)P2 receptor prepared from purified guinea pig hepatocytes; set-up: species or system Cavia porcellus; conditions: hepatocyte
[3] = Binding affinity against Ins(1,4,5)P3 receptor prepared from purified rat brain cerebellum; format: tissue-based

- IC50 [1]: 9.3 µM
Structure (SMILES): O=P(O)(O)O[C@H]1[C@H](OP(=O)(O)O)[C@@H](O)[C@@H](O)[C@@H](O)[C@@H]1OP(=O)(O)O

- IC50 [2]: 50 µM
Structure (SMILES): O=P(O)(O)O[C@@H]1[C@@H](O)[C@H](O)[C@H](O)[C@H](O)[C@H]1OP(=O)(O)O

- IC50 [3]: 0.01 µM
Structure (SMILES): O=P(O)(O)O[C@@H]1[C@H](O)[C@H](O)[C@@H](OP(=O)(O)O)[C@H](OP(=O)(O)O)[C@H]1O [INS(1,4,5)P3]
